Test results taken from patent US7598033B2, “Method and devices for running reactions on a target plate for MALDI mass spectrometry” (University of Pennsylvania, priority 2003, dated 2009).

Experiments:
thrombin = thrombin (Homo sapiens, UniProt P00734); assay: Nanoliter thrombin/fibrinogen reaction on MALDI target, MS detection of fibrinopeptides A and B; assay type: biochemical; conditions: benzamidine in the nanoliter reaction, FIG. 26B
Method: The glycerol in the reaction was then removed, and MALDI matrix was deposited to result in a thin film suitable (FIG. 26A) for MS detection of FPA/FPB.
A 8×12 array of reactions were printed using an OmniGrid microarrayer containing varying concentrations of fibrinogen and a fibrinopeptide MS satandard. Certain reactions contained 1 mM benzamidine. The array was activated with thrombin and incubated under humidity (top row, A), the glycerol was removed (middle row, A), and then coated with MALDI matrix (bottom row, A). […] Conditions of the MALDI MS were: Voyager-DE PRO (sinapinic acid matrix), Glu1-Fibrinopeptide B (1 ug/ml) control, Reflector Mode, Positive Polarity, 1000-2000 Da Acquisition Range, 20000 V Accelerating voltage, 2033 laser intensity (20.0 Hz; 100/spectrum), Extraction delay time: 150 nsec, Grid voltage: 75%, Guide wire voltage: 0.002%.

[1] = Fluorogenic substrate microarray, aerosol deposition of enzyme: boc-VPR-MCA; assay type: biochemical; conditions: after spray application
Method: Well characterized for over 30 years, serine proteases of the coagulation pathway in plasma were selected as a system in which to monitor the delivery of complex enzyme fluids to the microassay. Fluorogenic substrates in DMSO/glycerol were assayed to a glass slide.
After spray application, thrombin caused a 65-fold increase in fluorescence activity after conversion of the boc-VPR-MCA substrate. […] Aerosol deposition of pure tPA (10 μM) to a sensing array caused significant cleavage of the tPA, thrombin and Xa substrates, resulting in fluorescence that was 18- to 20-fold above background.

Row | Compound | inhibition of thrombin release of fibrinopeptides A and B from fibrinogen (thrombin) | increase in fluorescence activity after conversion of the boc-VPR-MCA substrate [1] [fold]
1 | N=C(N)c1ccccc1 [Benzamidine] | completely inhibited | –
2 | thrombin | – | 65
